According to patent EP1016405A2, “Arylating medicaments” (Radopath Pharmaceuticals International Limited, priority 1993, dated 1994):
Where “and” joins values, the source holds several entries; their conditions need not be identical. Identical values can stand only once. Like-named read-outs stand apart in the source and are kept apart here.

How the values were obtained:
[1] = test system: MAC15A (murine adenocarcinoma colon); experiment: Anti-tumour activity against MAC15A ascites tumour, survival T/C%; type: in vivo, mice; conditions: for T/C%: mouse, in vivo; for response vs control in vivo at 100 mg/kg: Mus musculus, MAC15A, read-out: T/C%
HIV-1RF = experiment: Acute Infection Assay, HIV core antigen ELISA in C8166 cells; type: cell-based, human immunodeficiency virus
in vitro = conditions: CC50 (Toxicity)
HIV-1IIIB = experiment: Acute infection assay against HIV-1IIIB; type: cell-based, human immunodeficiency virus; conditions: for IC50: read-out: IC50 (Antiviral)
B16F1-murine melanoma = conditions: 12 days after sc transplant, corn oil
in vivo = conditions: mouse, ip
[2] = test system: M5076 reticulum cell sarcoma; experiment: Anti-tumour activity against M5076 reticulum cell sarcoma; type: in vivo, murine; conditions: statement in words
Experimental: The purpose of these studies was to evaluate the anti-tumour properties of a group of compounds with structural similarities that may act as arylating agents. Their in vivo anti-tumour responses were assessed against two ascitic tumours, the MAC15A murine colon adenocarcinoma and the P388 murine leukaemia and various solid tumour models.
The MAC15A ascites tumour cells were transplanted into male NMR1 mice by ip inoculation at a cell density of 1 X 10^5 cells in 200µl buffer (Table 1). The P388 were transplanted ip into male BDF1 mice at cell density of 1 X 10^6 cells in 200µl buffer (Table 2). The solid tumour models included the MAC13 and MAC16 murine colon adenocarcinomas, the B16 F1 murine melanoma and the M5076 reticulum cell sarcoma.
Treatment commenced 3 days after ip transplant or, in the case of solid tumours such as MAC13 and MAC16, treatment commenced when average tumour volumes reached 40mm^3.
The animals were sacrificed after 12 days or when tumours ulcerated, tumour volume exceeded 1000mm^3 or loss of body weight exceeded 50%.
Except where otherwise stated, the compounds used were dissolved in DMSO and diluted in sterile distilled water, at appropriate concentrations before administration in a solvent volume of 200 µl. Anti-tumour responses were obtained by comparing the median survival times or tumour growth inhibition against solvent controls.

[3] = Human immunodeficiency virus 1, C8166, Table 11.4, Against HIV-1RF, single assays, unit inferred, read-out: IC50 (Antiviral)
[4] = Human immunodeficiency virus 1, Table 11.3, Against HIV-IIIB / HIV-1IIIB, single assays, unit inferred
[5] = Human immunodeficiency virus 1, C8166, read-out: IC50 (Antiviral)
[6] = Human immunodeficiency virus 1, IIIB

O=[N+]([O-])c1cc(Cl)c(Cl)cc1[N+](=O)[O-] [Compound E3, 1,2-dichloro-4,5-dinitrobenzene]
T/C% ([1]; ip): 171% | SI (Selectivity Index) (HIV-1RF): 1.5 | IC50 (HIV-1RF; read-out: IC50 (Antiviral)): 4 µM | CC50 (in vitro): 7 µM

Nc1c([N+](=O)[O-])cc(S(=O)(=O)O)cc1[N+](=O)[O-] [Compound S3, 4-amino-3,5-dinitrobenzenesulfonic acid]
T/C% ([1]; ip): 286% | TI (HIV-1RF): 5 | IC50 (HIV-1RF; read-out: IC50): 20 µM | CD50 (uninfected cells): 100µm

O=S(=O)(O)c1ccc(Cl)cc1 [Compound S5, 4-chlorobenzenesulfonic acid]
response vs control in vivo at 100 mg/kg ([1]; median survival, test vs solvent control, 100 mg kg^-1 ip per day, schedule days 1,2,3,4,5): 443% | IC50 (HIV-1RF; [3]): > 200 µM | CC50 (in vitro): > 200 µM

NC(=O)c1cc([N+](=O)[O-])c(Cl)c([N+](=O)[O-])c1 [Compound C5, 4-chloro-3,5-dinitrobenzamide]
SI (Selectivity Index) (HIV-1IIIB): 10 | % Tumour Weight Inhibition (B16F1-murine melanoma; 1.25 mg/kg ip, days 1,3,5): 27% | % Tumour Weight Inhibition (B16F1-murine melanoma; 2.5 mg/kg ip, days 1,3,5): 18% | % Tumour Weight Inhibition (B16F1-murine melanoma; 5 mg/kg ip, days 1,3,5): 18% | MTD at 12 days (in vivo): 5 mg/kg | CC50 (in vitro): 50 µM

O=C(O)c1ccc(Cl)c([N+](=O)[O-])c1 [Compound C9, 4-chloro-3-nitrobenzoic acid]
IC50 (HIV-1IIIB; [4]): > 200 µM | CC50 (in vitro): > 200 µM

O=[N+]([O-])c1c(Cl)c(Cl)c(Cl)c(Cl)c1Cl [Compound E14, pentachloronitrobenzene]
IC50 (HIV-1RF; [5]): > 200 µM | CC50 (in vitro): > 200 µM

O=C(O)c1cc([N+](=O)[O-])c(Cl)c([N+](=O)[O-])c1 [Compound C4, 4-chloro-3,5-dinitrobenzoic acid]
TI (HIV-1RF): 2.33 | SI (Selectivity Index) (HIV-1IIIB): 2.5 and 2.3 | % Tumour Weight Inhibition (B16F1-murine melanoma; 50 mg/kg ip, days 1,5): 10% | % Tumour Weight Inhibition (B16F1-murine melanoma; 75 mg/kg ip, days 1,5): 41% | % Tumour Weight Inhibition (B16F1-murine melanoma; 100 mg/kg ip, days 1,5): 39% | CD50 (uninfected cells): 70µm | CC50 (in vitro): 100 µM

O=S(=O)(O)c1cc(Cl)ccc1Cl [Compound S7, 2,5-dichlorobenzenesulfonic acid]
response vs control in vivo at 100 mg/kg ([1]; ip): 212% | IC50 (HIV-1RF; [3]): > 200 µM | CC50 (in vitro): > 200 µM

NC(=O)c1cc([N+](=O)[O-])c(N)c([N+](=O)[O-])c1 [4-amino-3,5-dinitrobenzamide]
response vs control in vivo at 100 mg/kg ([1]; ip, 24 h): 100%

O=[N+]([O-])c1ccc(Cl)c(Cl)c1 [Compound E7, 3,4-dichloronitrobenzene]
IC50 (HIV-1RF; [5]): > 200 µM | CC50 (uninfected cells): > 200 µM

O=C(O)c1ccc(Cl)c(Cl)c1 [Compound C-11, 3,4-dichlorobenzoic acid]
IC50 (HIV-1IIIB; [4]): > 200 µM | CC50 (in vitro): > 200 µM

COC(=O)c1cc([N+](=O)[O-])c(Cl)c([N+](=O)[O-])c1 [Compound C6, 4-chloro-3,5-dinitrobenzoic acid methyl ester]
IC50 (HIV-1IIIB; [6]): 5 µM | MTD (in vivo): 2.5 mg/kg | CC50 (in vitro): 60 µM

O=[N+]([O-])c1ccc(Cl)c([N+](=O)[O-])c1 [Compound E2, 1-chloro-2,4-dinitrobenzene]
response vs control in vivo at 100 mg/kg ([1]; ip): 188% | SI (Selectivity Index) (HIV-1RF): 3 | IC50 (HIV-1RF; [5]): 4 µM | CC50 (in vitro): 13 µM

O=C(O)c1cc([N+](=O)[O-])cc([N+](=O)[O-])c1 [3,5-dinitrobenzoic acid]
T/C% ([1]; ip): 100%

Nc1c(Cl)cc([N+](=O)[O-])cc1[N+](=O)[O-] [6-chloro-2,4-dinitroaniline]
T/C% ([1]; ip): 87%

O=[N+]([O-])c1cc(S(=O)(=O)O)ccc1Cl [Compound S4, 4-chloro-3-nitrobenzenesulfonic acid]
response vs control in vivo at 100 mg/kg ([1]; ip): 140% | IC50 (HIV-1RF; [3]): > 200 µM | CC50 (in vitro): > 200 µM

COc1ccc(Cl)c([N+](=O)[O-])c1 [4-chloro-3-nitroanisole]
response vs control in vivo at 100 mg/kg ([1]; ip): 100%

O=[N+]([O-])c1cc(Cl)ccc1Cl [Compound E6, 2,5-dichloronitrobenzene]
SI (Selectivity Index) (HIV-1RF): 2 | IC50 (HIV-1RF; [5]): 110 µM | CC50 (in vitro): > 200 µM

O=[N+]([O-])c1cc([N+](=O)[O-])c(Cl)c(S(=O)(=O)O)c1 [Compound S2, 2-chloro-3,5-dinitrobenzenesulfonic acid]
T/C% ([1]; ip): 137% | TI (HIV-1RF): >8 | IC50 (HIV-1RF; read-out: IC50): 25 µM | CD50 (uninfected cells): >200µm

O=[N+]([O-])c1cc(Cl)c(Cl)cc1Cl [Compound E11, 1,2,4-trichloro-5-nitrobenzene]
IC50 (HIV-1RF; [5]): > 200 µM | CC50 (in vitro): > 200 µM

Nc1c([N+](=O)[O-])cc(Cl)cc1[N+](=O)[O-] [4-chloro-2,6-dinitroaniline]
T/C% ([1]; ip): 87%

COC(=O)c1cc([N+](=O)[O-])c(Cl)c([N+](=O)[O-])c1Cl [Compound C3, 2,4-dichloro-3,5-dinitrobenzoic acid methyl ester]
antitumour activity [2]: without antitumour activity | IC50 (HIV-1IIIB; [6]): 0.3 µM | CC50 (in vitro): 7 µM

O=[N+]([O-])c1ccc(Cl)cc1[N+](=O)[O-] [Compound E1, 1-chloro-3,4-dinitrobenzene]
T/C% ([1]; ip): 200% | SI (Selectivity Index) (HIV-1RF): 2.5 | IC50 (HIV-1RF; read-out: IC50 (Antiviral)): 4 µM | CC50 (in vitro): 10 µM

Nc1ccc([N+](=O)[O-])cc1Cl [2-chloro-4-nitroaniline]
response vs control in vivo at 100 mg/kg ([1]; ip): 171%

Nc1c([N+](=O)[O-])cccc1[N+](=O)[O-] [2,6-dinitroaniline]
T/C% ([1]; ip): 214%

O=C(O)c1ccc([N+](=O)[O-])cc1[N+](=O)[O-] [2,4-dinitrobenzoic acid]
T/C% ([1]; ip): 100%

O=[N+]([O-])c1cc(Cl)cc(Cl)c1[N+](=O)[O-] [Compound E9, 1,5-dichloro-2,3-dinitrobenzene]
response vs control in vivo at 100 mg/kg ([1]; ip): 386%

O=C(O)c1cc(Cl)ccc1Cl [Compound C-12, 2,5-dichlorobenzoic acid]
response vs control in vivo at 100 mg/kg ([1]; ip): 171% | CC50 (in vitro): > 200 µM

O=[N+]([O-])c1cc(Cl)cc(Cl)c1 [Compound E8, 3,5-dichloronitrobenzene]
SI (Selectivity Index) (HIV-1RF): 1.5 | IC50 (HIV-1RF; [5]): 120 µM | CC50 (uninfected cells): > 200 µM

O=C(O)c1cc([N+](=O)[O-])cc([N+](=O)[O-])c1Cl [Compound C7, 2-chloro-3,5-dinitrobenzoic acid]
SI (Selectivity Index) (HIV-1IIIB): 6 and >10 | IC50 (HIV-1IIIB): 23 µM | CC50 (uninfected cells): > 200 µM | CC50 (in vitro): 150 µM

2-glutathionyl-3,5-dinitrobenzenesulfonic acid
T/C% ([1]; ip): 242%

O=[N+]([O-])c1ccc(Cl)cc1Cl [Compound E5, 2,4-dichloronitrobenzene]
SI (Selectivity Index) (HIV-1RF): 1 | IC50 (HIV-1RF; [5]): 180 µM | CC50 (uninfected cells): > 200 µM

O=[N+]([O-])c1ccc(Cl)c(Cl)c1Cl [Compound E10, 1,2,3-trichloro-4-nitrobenzene]
IC50 (HIV-1RF; [5]): > 200 µM | CC50 (in vitro): 90 µM

4-glutathionyl-3,5-dinitrobenzene
T/C% ([1]; ip): 113%

O=C(O)c1ccc([N+](=O)[O-])cc1Cl [Compound C-10, 2-chloro-4-nitrobenzoic acid]
IC50 (HIV-1IIIB; [4]): > 200 µM | CC50 (in vitro): > 200 µM

COC(=O)c1cc([N+](=O)[O-])cc([N+](=O)[O-])c1Cl [Compound C8, 2-chloro-3,5-dinitrobenzoic acid methyl ester]
IC50 (HIV-1IIIB; [6]): 10 µM | CC50 (in vitro): 60 µM

O=[N+]([O-])c1c(Cl)cc(Cl)c(Cl)c1Cl [Compound E13, 2,3,4,6-tetrachloronitrobenzene]
IC50 (HIV-1RF; [5]): > 200 µM | CC50 (in vitro): 80 µM

Cc1ccc(S(=O)(=O)O)cc1[N+](=O)[O-] [3-nitro-4-methylbenzenesulfonic acid]
response vs control in vivo at 100 mg/kg ([1]; ip): 229%

O=[N+]([O-])c1ccc(S(=O)(=O)O)c([N+](=O)[O-])c1 [Compound S8, 2,4-dinitrobenzenesulfonic acid]
T/C% ([1]; ip): 171% | IC50 (HIV-1RF; read-out: IC50 (Antiviral)): 40 µM and 30 µM | CC50 (in vitro): 100 µM

O=[N+]([O-])c1cccc(Cl)c1Cl [Compound E4, 2,3-dichloronitrobenzene]
SI (Selectivity Index) (HIV-1RF): 1.5 | IC50 (HIV-1RF; [5]): 80 µM | CC50 (uninfected cells): > 200 µM

Nc1ccc([N+](=O)[O-])cc1[N+](=O)[O-] [2,4-dinitroaniline]
T/C% ([1]; ip): 100%
